How the values were obtained:
[1] = tested on: hSmad7 mRNA in BMP9-stimulated HMVEC; assay: Smad7 target gene induction: HMVEC cell assay and TaqMan expression analysis; type: cell-based; conditions: Homo sapiens, hBMP9 stimulation, Smad7 mRNA by TaqMan
Description: B-2a. Smad7 Target Gene Induction: HMVEC Cell Assay and TaqMan Expression Analysis
Activation of ALK1 receptors by BMP9 induces the Smad1/5 signalling pathway and enhances expression of target genes Smad6, Smad7 and Id-1. Induction of Smad7-mRNA in BMP9-stimulated endothelial cells was determined to monitor the cellular potency of ALK1 kinase inhibitors.
Human microvascular endothelial cells (IIMVECadult, Cell Systems, St. Katharinen) were seeded in complete ENGS MV medium with all supplements (LifeLine Cell Technology) in 96 well plates with 10 000 cells per well. After 4 h incubation at 37° C. and 7.5% CO2 in a humidified incubator, medium was replaced with minimal medium (ENGS MV without supplements containing 0.02% FCS). After 16 h, test compounds or medium (controls) were added to the cultures, followed 30 min later by addition of hBMP9 (R&D Systems). Medium was removed 1 to 4 h later, plates were gently washed with phosphate-buffered saline, and cells were lysed with 150 μl per well of ice-cold RLT buffer (Qiagen).
Total cellular RNA was isolated with the Trizol® reagent protocol according to the manufacturer's specifications (Invitrogen, USA) and treated with DNAseI to remove genomic DNA contamination.
For relative quantitation of the mRNA distribution of hSmad7, total RNA from each sample was first reverse-transcribed using the ImProm-II Reverse Transcription System (Promega, USA) according to the manufacturer's protocol. The final volume was adjusted to 200 μl with water.
For relative quantitation of selected mRNA, the Applied Bioscience ABI 7900HT Sequence Detection System was used according to the manufacturer's specifications and protocols. PCR reactions were set up to quantitate hSmad7- and the housekeeping gene L32-mRNA. Forward and reverse primers and probes for hSmad7 and L32 were designed using the Applied Bioscience ABI Primer Expressim software and were synthesized by Eurogentec (Belgium). The hSmad7 forward primer sequence was: Primer 1 (SEQ ID NO 1). The hSmad7 reverse primer sequence was: Primer 2 (SEQ ID NO 2). Probe 1 (SEQ ID NO 3), labelled with FAM as the reporter dye and TAMRA as the quencher, was used as a probe for hSmad7. The L32 forward primer sequence was: Primer 3 (SEQ ID NO 4). The L32 reverse primer sequence was: Primer 4 (SEQ ID NO 5). Probe 2 (SEQ ID NO 6), labelled with FAM as the reporter dye and TAMRA as the quencher, was used as a probe for L32.
The following reagents were prepared in a total of 20 μl added per well: 1× qPCR-MasterMix (Eurogentec, Belgium) and hSmad7 forward and reverse primers each at 200 nM, 200 nM hSmad7 FAM/TAMRA-labelled probe 1 (SEQ ID NO 3), and 5 μl of template cDNA. Correspondingly, a second mix in a total of 20 μl was prepared using L32 FAM/TAMRA-labelled probe 2 (SEQ ID NO 6) and L32 forward and reverse primers added per well in parallel samples.
Thermal cycling parameters were 2 min at 50° C., followed by 10 min at 95° C., followed by 40 cycles of melting at 95° C. for 15 sec and annealing/extending at 60° C. for 1 min.
Calculation of Relative Expression:
The Ct (cycle threshold) values were calculated from the turning point of PCR product quantity curves by the ΔΔCt method (delta-delta Ct): ΔCt=CthSmad7−CtL32; relative expression=2^(15-ΔCt).
IC50 values of test compounds were calculated on basis of relative Smad7 expressions at different compound concentrations.

[2] = tested on: hSmad7 mRNA in BMP9-stimulated HUVEC; assay: Smad7 target gene induction: HUVEC cell assay and TaqMan expression analysis; type: cell-based, human; conditions: 1 ng/ml BMP9 for 3 h, Smad7 mRNA by TaqMan
Description: B-2b. Smad7 Target Gene Induction: HUVEC Cell Assay and TaqMan Expression Analysis
The in vitro potency of ALK1 inhibitors was tested in a cell-based assay. Bone morphogenetic protein 9 (BMP9) induces Smad7 mRNA expression in human vascular endothelial cells (HUVEC) via activation of ALK1.
1.5×10^4 passage 2 HUVECs (Lonza, Basel, Switzerland) per well were seeded in a 96-well plate in EBM-2 medium containing EGM-2 additives and growth factors (Lonza, CC-3156 and CC-4176). After 4 h, the medium was changed to EBM-2 with 0.2% fetal calf serum (FCS) and the cells were starved for 20 h in a humidified incubator at 37° C., 5% CO2. Test compounds were added at 11 different concentrations between 0 and 10 000 nM one hour prior to stimulation of the cells for 3 h with recombinant human BMP9 protein at 1 ng/ml (dissolved in 4 mM hydrochloric acid, 0.1% BSA at 10 μg/ml; R&D Systems, Minneapolis, Minn., USA, 3209BP). Medium was removed, and the cells were lysed in 100 μl RLT buffer (Qiagen, Hilden, Germany). RNA was isolated using the Qiagen RNeasy 96 Kit (order-No. 74182) according to manufacturer's instructions and eluted from the columns with 65 μl RNAse-free water. Reverse transcription for quantitative RT-PCR was carried out with the Omniscript Kit (Qiagen, 205113) in RNAse-free 96-well round-bottom plates. Per well, 6.8 μl of a reaction master mix containing 2 μl 10×RT-buffer, 2 μl dNTPs (5 mM each), 1.6 μl random primer N6 (125 μM), 0.25 μl Rnase Out (40 U/μl) and 1 μl Omniscript Reverse Transcriptase were added. After addition of 13.2 μl of the RNA/water mixture, plate contents were mixed, incubated for 1 h at 37° C. and the total volume adjusted to 100 μl in each well by addition of 80 μl RNAse-free water.
The quantification of human Smad7 mRNA was carried out on a TaqMan using the Eurogentec qPCR Mastermix Plus (RT-QP2X-03-075+; Cologne, Germany) and employing human L32 as housekeeping reference mRNA. Per qPCR reaction, 2.8 μl primer mix, 10 μl master mix, 2.2 μl water and 5 μl cDNA were added. Thermal cycling parameters were 2 min at 50° C., followed by 10 min at 95° C., followed by 40 cycles of melting at 95° C. for 15 sec and annealing/extending at 60° C. for 1 min.
Smad7 mRNA levels induced by 1 ng/ml BMP9 without the addition of any inhibitor were set at 100% induction, and % inhibition was calculated for each test compound with this value. For each test compound, every value was determined in quadruplicate. The IC50 values were determined using Microsoft Excel. The fitting method used was a weighted, unconstrained ML-fit.

ALK1 kinase = ALK1 kinase (Homo sapiens (Human), UniProt P37023); assay: In vitro enzyme inhibition using scintillation of incorporated radio label (flashplate assay); type: biochemical; conditions: biotinylated α-casein, 33P-ATP, 500 nM ATP
ALK1 kinase, sequence (P37023 22-503): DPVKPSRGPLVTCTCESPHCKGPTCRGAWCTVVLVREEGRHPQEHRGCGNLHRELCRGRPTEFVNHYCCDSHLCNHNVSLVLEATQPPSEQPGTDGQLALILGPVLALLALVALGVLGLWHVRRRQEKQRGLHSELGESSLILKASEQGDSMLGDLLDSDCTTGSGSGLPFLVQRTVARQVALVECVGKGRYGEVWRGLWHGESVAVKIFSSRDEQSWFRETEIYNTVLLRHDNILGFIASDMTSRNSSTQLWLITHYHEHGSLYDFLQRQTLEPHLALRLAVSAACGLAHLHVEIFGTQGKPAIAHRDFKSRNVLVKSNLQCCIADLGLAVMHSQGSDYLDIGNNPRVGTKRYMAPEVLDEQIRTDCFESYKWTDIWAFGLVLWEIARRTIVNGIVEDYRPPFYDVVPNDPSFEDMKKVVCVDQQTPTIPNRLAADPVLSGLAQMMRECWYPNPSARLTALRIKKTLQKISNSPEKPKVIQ
Description: B-1a. In Vitro Enzyme Inhibition Using Scintillation of Incorporated Radio Label (Flashplate Assay)
Test compounds diluted in DMSO are mixed with a suitable substrate/co-substrate (here: biotinylated α-casein and ^33P-ATP) in a corresponding assay buffer. Addition of the enzyme of interest (here: ALK1 kinase) starts the enzyme reaction. The enzyme-catalyzed incorporation of radio label into the substrate is measured via scintillation. Incorporated radio label is separated from free radio label via specific binding of the biotinylated substrate to strepavidin-coated microtiter plates (flashplates) and concomitant washing steps. The scintillation signal intensity (counts per minutes, cpm) is proportional to the enzyme activity. Enzyme inhibition results in a decreased signal intensity. IC50 values of the test compounds are determined by cpm-versus-[I] plots.
Reaction buffer contains 50 mM Tris pH 8.0 (Sigma), 1 mM MnCl2 (Sigma), 0.01% Nonidet P40 (Fluka), 0.5× Complete EDTA-free protease inhibitors (Roche; contains a mixture of several protease inhibitors for the inhibition of serine and cysteine (but not metallo-) proteases; 1 tablet contains protease inhibitors sufficient for a 50 ml cell extract; the concentration used in this assay corresponds to 1 tablet in 100 ml).
• 1.) Stop solution: Dulbecco's PBS (PAA, Pasching, Austria), 25 mM EDTA (Sigma), 25 μM ATP (Roche), 0.05% Triton X-100 (Sigma); • 2.) Saturation buffer: Dulbecco's PBS (PAA, Pasching, Austria), 100 μM ATP (Roche), 0.2% Triton X-100 (Sigma); • 3.) Wash buffer: Dulbecco's PBS (PAA, Pasching, Austria). Enzyme Solution:
ALK1 (Invitrogen, Paisley, United Kingdom) stock solution (35.7 ng/μl) is diluted to 4 ng/μl; final concentration in the reaction is 1 ng/μl.
Dephosphorylated α-casein (Sigma) is biotinylated according to the manufacturer's protocol (Pierce, Bonn, Germany) resulting in a stock solution of 61.6 μM. Briefly, EZ-Link® Biotin reagent (sulfosuccinimidyl-6-(biotinamido)hexanoate; Pierce, Bonn, Germany) is added in equal molarity to α-casein and incubated on ice for 2 h. Afterwards, the biotin reagent is removed by dialysis (2×2 h and overnight).
A 100 mM solution of cold (unlabelled) ATP (Roche) is diluted 1:100 before each test. For the substrate mix, α-casein is diluted to 2.22 μM resulting in a final concentration of 1 μM α-casein in the reaction. Additionally, cold ATP is added to give a 1.11 μM solution which results in a final concentration of 500 nM in the reaction.
Radioactive ATP Solution:
The stock solution (9.25 MBq/25 μl of ^33P-ATP; Perkin Elmer, Rodgau, Germany) is diluted to 651.2 Bq/μl.
Compounds are dissolved in 100% DMSO (10 mM stock solution) and diluted to 2 mM. Further dilutions are made stepwise 1:3.16 in DMSO.
A volume of 9 μl substrate solution is provided into each well of a 384 well microliter plate (Greiner Bio-One, Solingen, Germany), 1 μl compound solution and 5 μl of the radioactive ATP solution are added. Enzyme reaction starts with addition of 5 μl of enzyme solution. The mixture is incubated for 60 minutes at room temperature and then stopped by addition of 10 μl stop solution. The 384 well microliter flashplates (Perkin Elmer, Rodgau, Germany) are saturated with 50 μl saturation buffer per well for at least 60 minutes. Subsequently, a volume of 20 μl is discarded and replaced with 20 μl of the stopped ALK1 reaction mixture. Binding of biotinylated substrate to the flashplate is allowed for by overnight incubation at room temperature. Bound substrate is separated from unbound components through repeated washing steps (3×50 μl washing buffer per well). Finally, 50 μl washing buffer is added, and the scintillation signal (cpm) is measured in a suitable counter (Perkin Elmer, Rodgau, Germany).

| IC50 [1] | IC50 (ALK1 kinase) | SMILES | IC50 [2] | IC50 ([2]; Homo sapiens, 3 h) |
| --- | --- | --- | --- | --- |
| 60 nM |  | Nc1ncnn2c(C3CCNC3)cc(-c3cc(F)c(CO)c(F)c3)c12 (racemic) [Example 8, rac-{4-[4-Amino-7-(pyrrolidin-3-yl)pyrrolo[2,1-f][1,2,4]triazin-5-yl]-2,6-difluorophenyl}methanol] |  |  |
|  | 1.2 nM | COc1cc(-c2cc(C(O)C3CC3)n3ncnc(N)c23)ccc1CO (single isomer, unassigned; ent-4) [Example 42, ent-4-Amino-5-[4-(hydroxymethyl)-3-methoxyphenyl]pyrrolo[2,1-f][1,2,4]triazin-7-yl}(cyclopropyl)methanol (enantiomer 2)] | 6.6 nM |  |
|  | 1.9 nM | CC(C)c1cc(-c2cc(F)c(CO)c(F)c2)c2c(N)ncnn12 [Example 43, [4-(4-Amino-7-isopropylpyrrolo[2,1-f][1,2,4]triazin-5-yl)-2,6-difluorophenyl]methanol] |  | 27 nM |
|  | 3.2 nM | COc1cc(-c2cc(C(O)C3CC3)n3ncnc(N)c23)ccc1CO (racemic) [Example 40, rac-{4-Amino-5-[4-(hydroxymethyl)-3-methoxyphenyl]pyrrolo[2,1-f][1,2,4]triazin-7-yl}(cyclopropyl)methanol] |  | 62 nM |
|  | 2 nM | COc1cc(-c2cc(C3CCCNC3)n3ncnc(N)c23)cc(F)c1CO (centres unmarked) [Example 30, {4-[4-Amino-7-(piperidin-3-yl)pyrrolo[2,1-f][1,2,4]triazin-5-yl]-2-fluoro-6-methoxyphenyl}-methanol] |  | 51 nM |
|  | 3.5 nM | COc1cc(-c2cc(C(O)C3CC3)n3ncnc(N)c23)ccc1CO (single isomer, unassigned; ent-4) [Example 41, ent-4-Amino-5-[4-(hydroxymethyl)-3-methoxyphenyl]pyrrolo[2,1-f][1,2,4]triazin-7-yl}(cyclopropyl)methanol (enantiomer 1)] | 77 nM |  |
